Test results taken from US9981972B2, “N-hydroxy bicyclic hydantoin carbamates as tools for identification of serine hydrolase targets” (ABIDE THERAPEUTICS, INC., priority 2014, dated 2018).
“Also recorded” adds a separate entry of the source.

Columns and labels:
PPT1 (wild type, S115A) [1] = target: T1, PPT1 (wild type, S115A) (Homo sapiens, UniProt P50897); experiment: Labeling of recombinant PPT1 by probes (gel-based ABPP, isoTOP-ABPP); format: biochemical; conditions: transfected HEK293T cell lysates, gel-based ABPP
T1 construct: expressed in transfected cells; host or cells: HEK293T
T1 sequence (P50897 28-306 S115A): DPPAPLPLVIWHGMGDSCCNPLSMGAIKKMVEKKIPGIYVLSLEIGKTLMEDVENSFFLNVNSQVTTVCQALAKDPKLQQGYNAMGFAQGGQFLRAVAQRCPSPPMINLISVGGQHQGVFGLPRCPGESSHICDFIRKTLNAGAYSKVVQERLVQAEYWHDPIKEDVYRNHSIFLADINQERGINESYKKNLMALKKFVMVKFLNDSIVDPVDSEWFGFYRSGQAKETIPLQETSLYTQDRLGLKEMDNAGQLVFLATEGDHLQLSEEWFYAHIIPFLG
Experimental: (§1) HEK293T cells were seeded at 2×10^5 per well on 6 well plates and grown for 48 h. They were then transfected with mABHD3 (pCMV-Sport6), hABHD4 (pcDNA3.1/myc-his), hPPT1 (pCMV6-XL5), or hPPT1 S115A (pCMV6-XL5), by incubating 0.5 μg of DNA with 3 μL of PEI MAX (1 mg/mL, Polysciences, Inc) in serum-free DMEM for 30 min, then adding them to cells. After 48 h cells were either treated with compound in situ, as described above, or harvested for in vitro studies. The […] PPT1 mutation was introduced using QuikChange II Site Directed Mutagenesis Kit (Agilent) with the following primers: […]
(§2) Whole cell lysates (500 μL, 1.5 mg/mL) of hPPT1 transfected HEK239Ts were processed for MS analysis using the previously described isoTOP-ABPP protocol (Weerapana et al., Nature 468, 790-795, 2010). In brief, for analysis of Compound 39-modified peptides, proteomes were split into two fractions, to which Compound 39 (5 μM, 60 min) or DMSO were added. […] MS1 peaks for probe-labeled quantified peptides were extracted with Xcalibur Qual Browser 2.2 (Thermo Scientific). […]
(§3) HEK293T cells were transfected with wild type and an S115A mutant of PPT1, lysed, and treated with Compound 39 followed by CuAAC conjugation to an azide-Rh tag, PNGaseF treatment, and analysis by SDS-PAGE. […] S115 was identified as the site of Compound 39 labeling on PPT1 using a quantitative MS method termed isoTOP-ABPP. […]

PPT1 (wild type, S115A) [2] = experiment: as above; format: biochemical, human; conditions: transfected HEK293T lysates, CuAAC to azide-Rh, PNGaseF
Experimental: as §1, §2, §3

ABHD4 = target: T2, ABHD4 (Homo sapiens, UniProt Q8TB40); experiment: Gel-based competitive ABPP, recombinant enzyme in transfected HEK293T cell lysates; format: biochemical; parameters: myc-his; expressed in transfected cells; host or cells: HEK293T, transient transfection, pcDNA3.1/myc-his; lysate used in vitro; conditions: competitive ABPP with FP-Rh, 30 min 37° C.
T2 sequence (Q8TB40 1-342): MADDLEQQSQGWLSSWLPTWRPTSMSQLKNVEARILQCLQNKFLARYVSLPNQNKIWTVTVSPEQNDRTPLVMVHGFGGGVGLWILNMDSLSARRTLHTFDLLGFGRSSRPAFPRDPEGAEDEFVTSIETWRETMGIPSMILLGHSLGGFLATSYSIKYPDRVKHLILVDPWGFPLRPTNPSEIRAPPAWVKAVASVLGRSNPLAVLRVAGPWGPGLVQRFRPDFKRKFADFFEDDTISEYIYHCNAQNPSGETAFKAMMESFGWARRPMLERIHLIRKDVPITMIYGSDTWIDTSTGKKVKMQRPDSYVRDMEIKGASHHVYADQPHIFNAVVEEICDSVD
Experimental: as §1
Human ABHD3 and ABHD4 were recombinantly expressed by transient transfection in HEK293T cells, and the cell lysates were combined to provide a convenient assay for monitor inhibition of both enzymes by gel-based ABPP (see FIG. 8A). […]

[3] = system: SHs in PC3 cell proteomes; experiment: Probe-versus-probe ABPP-SILAC, PC3 proteomes; format: biochemical, human; conditions: Compound 39 5 μM, 1 h versus FP-biotin 2.5 μM
Experimental: Isotopically heavy- and light-labeled PC3 cells were treated with Compound 37 (1 μM) or DMSO for 4 h, respectively, lysed, and then treated Compound 39 (5 μM, 1 h). […] Among the handful of additional SH targets of Compound 37 were ABHD6 and PLA2G7, which were expected based on our ABPP-SILAC studies with FP-biotin (see FIG. 9), and protein-palmitoyl thioesterase 1 (PPT1), which was inhibited by more than 90%. […] Accordingly, PPT1 was not detected in our previous ABPP-SILAC studies with FP-biotin (see FIG. 9). The selective enrichment of PPT1 by Compound 39 was confirmed by performing a probe-versus-probe ABPP-SILAC study, where heavy and light PC3 proteomes were treated with FP-biotin (2.5 μM, 1 h) and Compound 39 (5 μM, 1 h), respectively. PPT1, along with two additional SHs LIPA and DDHD2, were preferentially enriched by Compound 39 over FP-biotin, while most of the other SHs were more strongly enriched by FP-biotin (see FIG. 13). A handful of SHs corresponding mostly to enzymes that were identified in our ABPP-SILAC studies as targets of Compound 37 (see FIGS. 9 and 12), were equivalently enriched by Compound 39 and FP-biotin (see FIG. 13).

probe reactivity with recombinant hPPT1 (PPT1 (wild type, S115A) [1]): reacts; also recorded: reacted with PPT1
Structure (SMILES): C#CCOc1ccc(N2CCN(C(=O)ON3C(=O)C4CN(Cc5ccc(Oc6ccccc6)cc5)CCN4C3=O)CC2)cc1 (stereo not shown) [Compound 39, 1,3-dioxo-7-(4-phenoxybenzyl)hexahydroimidazo[1,5-a]pyrazin-2(3H)-yl 4-(4-(prop-2-yn-1-yloxy)phenyl)piperazine-1-carboxylate]
labeling of wild type PPT1 versus S115A mutant (PPT1 (wild type, S115A) [2]): labels recombinant wild type PPT1, but not the catalytic serine mutant (S115A); also recorded: strong labeling of wild-type PPT1, but not the S115A mutant
inhibition of ABHD4 in transfected HEK293T cell proteome (ABHD4): inhibited ABHD4 in transfected HEK293T cell proteome in a concentration-dependent manner
SHs preferentially enriched by Compound 39 over FP-biotin [3]: PPT1 and LIPA and DDHD2
